Measured values as given in US20120238520A1, “Novel Medical Use” (priority 2009, published 2012).
Where a name gives a salt, the structure may show the parent alone.

Experiments:
Assay type in all cases: in vivo, rat
[1] = system: HCl-instilled rats; assay: HCl (acid aspiration, chemical injury) model of acute lung injury in anesthetized, ventilated rats; details: rats 2 h after intratracheal HCl pH 1.5, vs HCl alone
Text: (§1) The preparation of anesthetized, ventilated rats was used to carry out the below described examples. Techniques of the below described examples have been published (Frank J A, Gutierrez J A, Jones K D, et al.: Low tidal volume reduces epithelial and endothelial injury in acid-injured rat lungs. Am. J. Respir. Crit. Care Med. 165:242-249, 2002; Folkesson H G, Nitenberg G, Oliver B L, et al.: Upregulation of alveolar epithelial fluid transport after subacute lung injury in rats from bleomycin. Am. J. Physiol. 275:L478-490, 1998; Folkesson H G, Norlin A, Wang Y, et al., Dexamethasone and thyroid hormone pretreatment upregulate alveolar epithelial fluid clearance in adult rats. J. Appl. Physiol. 88: 416-424, 2000; and Norlin A, Lu L N, Guggino S E, et al., Contribution of amiloride-insensitive pathways to alveolar fluid clearance in adult rats. J. Appl. Physiol. 90: 1489-1496, 2001).
The methods used are published in the above given references. […]
To evaluate the effect of HCl (chemical injury; a model of aspiration-induced acute lung injury), HCl at pH 1.5 was used (FIG. 1, bottom panel illustrates the time scheme used for HCl treatments). […] Blood was sampled for fluorescence and arterial blood gas measurements every 30 min throughout the experiment. […]

[2] = system: LPS-instilled rats; assay: LPS (endotoxin, biochemical injury) model of sepsis-induced acute lung injury in anesthetized, ventilated rats; details: rats 16 h after intratracheal LPS 5 mg/kg body wt, vs LPS alone
Text: as §1, with “2001). […]” for “2001).”
To evaluate the effect of endotoxin (biochemical injury; a model of sepsis-induced acute lung injury), E. coli LPS at the concentration of 5 mg/kg body wt was given intratracheally (FIG. 1, top panel illustrates the time scheme used for LPS treatments). […] Blood was sampled for fluorescence and arterial blood gas measurements every 30 min throughout the experiment. […] Alveolar fluid clearance, extravascular lung water, and endothelial-epithelial barrier leak were determined.

[3] = system: live E. coli-instilled rats; assay: Live E. coli DH5α (biological injury) model of sepsis-induced acute lung injury in anesthetized, ventilated rats; details: rats 3 h after intratracheal live E. coli DH5α, vs E. coli alone
Procedure: The preparation of anesthetized, ventilated rats was used to carry out the below described examples. […]
To evaluate the effect of live E. coli (biological injury; a model of sepsis-induced acute lung injury), E. coli (serotype DH5α at the concentration of 10^8 cfu/ml was given intratracheally (FIG. 2). Rats were surgically prepared (anesthetized, tracheotomized, outfitted with a carotid artery catheter, and connected to a ventilator). The rats were ventilated for a 30 min baseline of stable blood gases. An instillation catheter was passed to rest just above the bronchial carina and 1 ml/kg body wt of the solution containing 10^8 cfu/ml E. coli DH5α was rapidly instilled into the lungs. The vascular tracer (FITC-labeled albumin) was given after 15 min stabilization time and the 5% albumin solution with and without (2R,3R,4S,5R)-2-(6-amino-2-{[(1S)-2-hydroxy-1-(phenylmethyl)ethyl]amino}-9H-purin-9-yl)-5-(2-ethyl-2H-tetrazol-5-yl)tetrahydro-3,4-furandiol maleate was instilled 2 h later into the distal airspaces of the lung. Blood was sampled for fluorescence and arterial blood gas measurements every 30 min throughout the experiment. […] Alveolar fluid clearance, extravascular lung water, and endothelial-epithelial barrier leak were determined.

[4] = system: rats; assay: Test solution instilled into airspaces of anesthetized, ventilated rats without injury-inducing agent; details: compound by itself, 10^−4 M in 5% albumin instilled into airspaces, any experimental group
Text: as §1
The methods used are published in the above given references. A test solution of 5% albumin with and without […] (2R,3R,4S,5R)-2-(6-amino-2-{[(1S)-2-hydroxy-1-(phenylmethyl)ethyl]amino}-9H-purin-9-yl)-5-(2-ethyl-2H-tetrazol-5-yl)tetrahydro-3,4-furandiol maleate dissolved in 0.9% NaCl was used and instilled into the airspaces of rats to measure alveolar fluid clearance with and without the injury-inducing agent (HCl, LPS, or E. coil, see below for details). […]

How did the “EVLW (extravascular lung water)” value ([1]; 10^−4 M compound in 5% albumin instilled into airspaces, FIG. 3 left) turn out when `CCn1nnc([C@H]2O[C@@H](n3cnc4c(N)nc(N[C@H](CO)Cc5ccccc5)nc43)[C@H](O)[C@@H]2O)n1` [(2R,3R,4S,5R)-2-(6-amino-2-{[(1S)-2-hydroxy-1-(phenylmethyl)ethyl]amino}-9H-purin-9-yl)-5-(2-ethyl-2H-tetrazol-5-yl)tetrahydro-3,4-furandiol maleate] was run?
The value was “a reduction in EVLW was observed, albeit EVLW remained elevated”.

What about the “ELW (excess lung water) reduced by” value ([1]; 10^−4 M compound instilled, ELW remained elevated compared to control, FIG. 4 left) of the same compound?
The value was about 20%.

What about the “EVLW (extravascular lung water)” value ([2]; 10^−4 M compound in 5% albumin instilled into airspaces, FIG. 3 center) of the same compound?
Its value is “a reduction in EVLW was observed”.

What about the “ELW (excess lung water) reduced by” value ([2]; 10^−4 M compound instilled, FIG. 4 center) of the same compound?
The value was about 40%.

What about the “EVLW (extravascular lung water)” value ([3]; 10^−4 M compound in 5% albumin instilled into airspaces, FIG. 3 right) of the same compound?
Its value is “a reduction in EVLW was observed”.

And the “ELW (excess lung water) reduced by” value ([3]; 10^−4 M compound instilled, FIG. 4 right)?
Its value is about 40%.

What about the “edema formation measured as increased EVLW (extravascular lung water)” value [4] of the same compound?
Its value is “believed not to result in edema formation”.
